In paper PMC10223552 (Pharmaceuticals, 2023):
Entries after “also recorded” stand apart in the source; their conditions may differ.

Experiments:
[1] = system: MCF-7 breast cancer cells; test: Apoptosis/necrosis detection (Annexin V-FITC/PI, image cytometry), MCF-7; format: cell-based, human; conditions: MCF-7, IC50 concentration, 48 h
Method: The MTT test results prompted further study. Staining with propidium iodide and Annexin V-FITC was performed to distinguish apoptotic from necrotic cell death.
Apoptosis was analyzed using the NucleoCounter® NC-3000™ (Chemometec Inc., Lillerød, Denmark) according to the manufacturer’s protocol using Annexin V from Biotium (Fremont, CA, USA). MCF-7 and MDA-MB-231 cells were seeded into 6-well plates (2 × 10^5 cells/mL) and cultured until 70–80% confluence was reached. […] Scatter plots were used to determine the proportion of healthy cells (Annexin V-negative/PI-negative cells), early apoptotic cells (Annexin V-positive/PI-negative cells), late apoptotic cells (Annexin V-positive/PI-positive cells), and necrotic cells (Annexin V-negative/PI-positive cells). Data were derived from three independent experiments with three replicates.

CYP3A4 = target: T1, CYP3A4 (Homo sapiens, UniProt P08684); test: Influence on CYP3A4 activity (P450-Glo); format: in vitro ADME
T1 construct: purchased Promega (Madison, WI, USA)
T1 sequence (P08684 whole entry): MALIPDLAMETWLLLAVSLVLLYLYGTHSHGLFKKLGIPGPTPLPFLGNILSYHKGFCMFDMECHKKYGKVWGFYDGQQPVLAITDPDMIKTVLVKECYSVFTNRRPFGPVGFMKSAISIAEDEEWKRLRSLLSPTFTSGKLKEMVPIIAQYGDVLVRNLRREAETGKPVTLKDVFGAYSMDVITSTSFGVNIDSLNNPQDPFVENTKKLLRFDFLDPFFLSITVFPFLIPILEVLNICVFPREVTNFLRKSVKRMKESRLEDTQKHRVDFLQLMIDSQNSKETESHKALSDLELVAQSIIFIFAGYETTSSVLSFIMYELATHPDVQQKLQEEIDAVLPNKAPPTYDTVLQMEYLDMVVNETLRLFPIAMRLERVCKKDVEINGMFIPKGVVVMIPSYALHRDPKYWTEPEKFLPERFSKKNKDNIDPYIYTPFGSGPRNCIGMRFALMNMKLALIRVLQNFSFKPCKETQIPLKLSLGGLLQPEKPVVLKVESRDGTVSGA
Method: (§1) Treatment of elderly patients who suffer from cancer or degenerative CNS diseases usually requires the use of more than one medication at the same time, which can result in a greater risk of DDIs. […] The results were compared to the selective CYP3A4 inhibitor ketoconazole and selective CYP2D6 inhibitor quinidine.
(§2) All assays and protocols used for the determination of compound ADME-Tox parameters were described previously. In brief, the metabolic stability assay was performed on HLMs, purchased from Sigma-Aldrich (St. Louis, MO, USA). ADS10310 was incubated with HLMs for 120 min in Tris buffer (pH = 7.4) at 37 °C. NADPH regeneration system Promega (Madison, WI, USA) was added to initiate whereas methanol was added to terminate the reaction. The LC/MS analyses of the centrifuged reaction mixture were obtained on Waters ACQUITY™ TQD system (Waters, Milford, CT, USA). The in silico prediction of most probable sites of ADS10310 metabolism was performed by MetaSite 6.0.1 software (Molecular Discovery Ltd., Hertfordshire, UK). […] The results were calculated from two independent experiments.
(§3) The luminescent signal and the absorbances (measured at 490 nm) in DDIs and safety assays were measured by using an EnSpire PerkinElmer microplate reader (Waltham, MA, USA). […]

hepatoma HepG2 cell line = test: Hepatotoxicity assay (MTS), HepG2; format: cell-based
Method: The cells were grown in Minimum Essential Media (MEM) supplemented with 10% fetal bovine serum (FBS) in a humidified atmosphere of 5% CO2 to reach 70–80% confluency. The cells were seeded next into 96-well plates at a concentration of 0.7 × 10^4 cells/well. […] The 1% DMSO in culture media was used as the vehicle control.

CYP2D6 = target: T2, CYP2D6 (Homo sapiens, UniProt P10635); test: Influence on CYP2D6 activity (P450-Glo); format: in vitro ADME
T2 construct: purchased Promega (Madison, WI, USA)
T2 sequence (P10635 whole entry): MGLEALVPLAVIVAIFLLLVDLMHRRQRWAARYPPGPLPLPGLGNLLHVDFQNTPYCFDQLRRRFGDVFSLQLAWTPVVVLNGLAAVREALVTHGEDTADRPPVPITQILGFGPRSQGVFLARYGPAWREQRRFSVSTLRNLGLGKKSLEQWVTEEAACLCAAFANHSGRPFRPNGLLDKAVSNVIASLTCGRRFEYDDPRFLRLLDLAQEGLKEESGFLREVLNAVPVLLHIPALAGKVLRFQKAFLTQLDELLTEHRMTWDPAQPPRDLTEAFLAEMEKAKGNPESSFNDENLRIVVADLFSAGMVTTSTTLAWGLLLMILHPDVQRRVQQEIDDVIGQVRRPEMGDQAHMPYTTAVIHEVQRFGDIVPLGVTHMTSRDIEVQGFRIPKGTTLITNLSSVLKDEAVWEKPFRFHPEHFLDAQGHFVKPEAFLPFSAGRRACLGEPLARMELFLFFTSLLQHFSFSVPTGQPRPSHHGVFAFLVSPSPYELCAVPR
Method: as §1, §2, §3

gpH1R = target: T3, gpH1R (Cavia porcellus, UniProt P31389); test: Ex vivo assay for histamine H1R antagonists on guinea pig ileum stimulated by histamine (+atropine); conditions: gpH1R +Atropine pA2 ± sem, isolated guinea pig ileum, vs histamine, 0.05 µM atropine
T3 construct: from tissue; host or cells: isolated distal ileum of male guinea pigs
T3 sequence (P31389 whole entry): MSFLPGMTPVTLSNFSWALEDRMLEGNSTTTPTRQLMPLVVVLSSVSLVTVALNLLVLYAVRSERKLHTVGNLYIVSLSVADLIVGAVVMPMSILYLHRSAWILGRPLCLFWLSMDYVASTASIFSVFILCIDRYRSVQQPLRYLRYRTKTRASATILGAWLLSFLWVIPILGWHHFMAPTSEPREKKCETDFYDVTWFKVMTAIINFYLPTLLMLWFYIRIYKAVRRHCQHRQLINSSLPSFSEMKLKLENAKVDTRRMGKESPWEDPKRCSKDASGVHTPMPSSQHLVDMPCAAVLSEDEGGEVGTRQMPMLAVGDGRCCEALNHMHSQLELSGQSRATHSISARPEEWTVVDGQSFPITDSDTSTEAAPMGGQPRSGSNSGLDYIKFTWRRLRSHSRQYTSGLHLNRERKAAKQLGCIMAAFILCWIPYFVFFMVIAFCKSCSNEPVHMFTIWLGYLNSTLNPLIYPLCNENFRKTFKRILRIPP
Method: A second histamine receptor located in the guinea pig ileum is H1R. The antagonistic effect at H1R was measured on the isolated guinea pig ileum stimulated to contractions by histamine. To eliminate the impact of muscarinic receptors located on the tested tissue, 0.05 µM of atropine was added to the Krebs buffer.
Ex vivo assay for histamine H3R and H1R antagonists were measured on the isolated guinea pig ileum stimulated to contractions by histamine. The pA2-values were calculated according to Arunlakshana and Schild. The radioligand-displacement binding assay was performed in membrane fractions of HEK-293 cells stably expressing hH3R. Cell cultivation and membrane preparation was performed according to Kottke et al.. The Ki values were calculated from the IC50 values using the Cheng–Prusoff equation [37]. The statistical calculations were performed on –log(Ki). […] The inhibitory activities of novel ADS compounds were assessed in spectrophotometric Ellman’s assay using AChE from electric eel (eeAChE) and BuChE from horse serum (eqBuChE).
3.2 Ex vivo assay for histamine H1R receptor antagonists on guinea pig ileum.
Male guinea pigs, weighing 300-400 g were euthanized by a blow to the neck. A 20-30 cm length of the distal ileum, apart from the terminal 5 cm was rapidly removed and placed in phosphate buffer at room temperature (pH […]
Aldrich, St. Louis, MO, USA) (1·10-6 mol/L). The intraluminal content was rinsed and the isolated intestine was cut into 1.5-2 cm segments. The preparations were mounted isotonically in a 20 mL organ bath filled with Krebs […]
a constant load of 0.5 g (Hugo Sachs Hebel-Messvorsatz (Tl-2)/HF-modem; Hugo Sachs Elektronik, Hugstetten, Germany) connected to a pen recorder (Kipp & Zonen BD41, Delft, Holland). During an equilibration period of 40 min, the Krebs buffer was changed every 10 min. The first cumulative concentration-response curve was determined to histamine (Sigma-Aldrich, St. Louis, MO, USA) (10 nM - 10 mM) at increasing concentration spaced by three or 3.3-fold. The second to the fourth (or fifth) curve was measured in the presence of an increasing concentration of antagonist (incubation time 10 min). The pA2-values were calculated according to Arunlakshana and Schild. [Br J Pharmacol Chemother. […] Statistical analysis was carried out with the Students’ t-test. In all tests, a p<0.05 was considered statistically significant. The pA2 values were compared with the affinity

[2] = In vitro metabolic stability in human liver microsomes; format: in vitro ADME
Method: In addition to biological activity, drug-likeness is equally important in drug discovery, and should be considered at the early stage of the drug development process. Therefore, ADS10310 was subjected to testing for several ADME-Tox parameters, including metabolic stability.
All assays and protocols used for the determination of compound ADME-Tox parameters were described previously. In brief, the metabolic stability assay was performed on HLMs, purchased from Sigma-Aldrich (St. Louis, MO, USA). ADS10310 was incubated with HLMs for 120 min in Tris buffer (pH = 7.4) at 37 °C. NADPH regeneration system Promega (Madison, WI, USA) was added to initiate whereas methanol was added to terminate the reaction. The LC/MS analyses of the centrifuged reaction mixture were obtained on Waters ACQUITY™ TQD system (Waters, Milford, CT, USA). The in silico prediction of most probable sites of ADS10310 metabolism was performed by MetaSite 6.0.1 software (Molecular Discovery Ltd., Hertfordshire, UK). To predict potential DDIs the CYP3A4 and CYP2D6 P450-Glo™ kits provided by Promega (Madison, WI, USA) were used according to provided protocols. The results were calculated from two independent experiments.

Row | Compound | early apoptotic cells (Q1lr) [1] | late apoptotic cells (Q1ur) [1] | influence on CYP3A4 activity (CYP3A4) | decrease of hepatoma HepG2 cell viability (hepatoma HepG2 cell line; 100 µM, 72 h) | HepG2 cell viability at concentrations up to 50 µM (hepatoma HepG2 cell line; 72 h) | hepatotoxic activity (in words) (hepatoma HepG2 cell line; HepG2, 72 h, 0.01-100 µM) | CYP2D6 inhibition (in words) (CYP2D6) | decrease of CYP2D6 activity (CYP2D6; lowest tested dose of 0.1 µM) | Kb (gpH1R) | Substrate Remaining ([2]; 120 min incubation with HLMs, Tris buffer pH 7.4, 37 °C) | Metabolic Pathway ([2]; HLMs, metabolites M1-M3 by LC/MS)
1 | N=C(N)N(CCCCN1CCN(CCCCCCCOc2ccccc2)CC1)Cc1ccccc1 [ADS1017] | 2% | 38% |  |  |  |  |  |  |  |  | 
2 | Cl.Cl.N=C(NCCCCc1ccc(Cl)cc1)NCCCCN1CCCCC1 [ADS10310] |  |  | did not show any influence on CYP3A4 activity | ~ 40% | no decrease | weak hepatotoxic activity | strongly inhibited CYP2D6; also recorded: strong inhibitor of CYP2D6 activity | more than 50% | 0.339 µM | 73.6% | decomposition and triple hydroxylation
